Data from PMC12024264, “Frog Skin Peptides Hylin-a1, AR-23, and RV-23: Promising Tools Against Carbapenem-Resistant Escherichia coli and Klebsiella pneumoniae Infections” (Antibiotics, 2025).
Values after ≈ are worked out from the molar mass of the structure shown. Where two headings read alike, the source gives them in different places. Where no end group is shown, it is not given here.

Tests used:
K. pneumoniae 1711 [1] = assay: Antibiotic resistance profile of clinical isolate (Table S1); for Interpretation: key: S: Sensible; I: Intermediate; R: Resistant; format: cell-based, Klebsiella pneumoniae; settings: Table S1, K. pneumoniae 1711; for MIC: Klebsiella pneumoniae, read-out: MIC
K. pneumoniae 1745 [2] = assay: as above; format: cell-based, Klebsiella pneumoniae; settings: Table S1, K. pneumoniae 1745; for MIC: Klebsiella pneumoniae, read-out: MIC
K. pneumoniae 1746 [3] = assay: as above; format: cell-based, Klebsiella pneumoniae; settings: for MIC: Klebsiella pneumoniae, 1746; for Interpretation: Table S1, K. pneumoniae 1746
K. pneumoniae = assay: Checkerboard assay with meropenem
Source text: (§4) The synergistic effect of the selected peptides and meropenem was examined using a checkerboard assay. This method investigates the interaction between various antimicrobial agents and their combined effectiveness against bacteria. […] It determines whether the combined agents act synergistically, additively, or antagonistically to identify combinations that can reduce drug resistance.
(§5) The rows contain two-fold dilutions of meropenem, while we reported a two-fold serial dilution of AMPs in the columns.
(§6) The checkerboard test was carried out to assess the antibacterial activity of peptides in combination with antibiotics. The test was performed by preparing the bacterial inoculum in the same manner as the tests described above. Non-toxic concentrations of all peptides and serial dilutions of meropenem were inoculated in a 96-well plate either alone or in combination. After 20 h, the plate was read at OD600, and the Fractional Inhibitory Concentration (FICI) was calculated according to the following formula:FICI = FIC (A) + FIC (B)
(§7) FIC (A) = MIC peptide in combination/MIC peptide alone
(§8) FIC (B) = MIC meropenem in combination/MIC Meropenem alone

E. coli = assay: Checkerboard assay with meropenem
Source text: as §4, §5, §6, §7, §8

E. coli 1376 [4] = assay: Antibiotic resistance profile of clinical isolate (Table S1); for Interpretation: key: S: Sensible; I: Intermediate; R: Resistant; format: cell-based, Escherichia coli; settings: for MIC: Escherichia coli, 1376; for Interpretation: Table S1, E. coli 1376
E. coli 3140 [5] = assay: as above; format: cell-based, Escherichia coli; settings: for MIC: Escherichia coli, 3140; for Interpretation: Table S1, E. coli 3140
E. coli 1441 [6] = assay: as above; format: cell-based, Escherichia coli; settings: for MIC: Escherichia coli, 1441; for Interpretation: Table S1, E. coli 1441
E. coli 2267 [7] = assay: as above; format: cell-based, Escherichia coli; settings: Table S1, E. coli 2267; for MIC: Escherichia coli, read-out: MIC
E. coli 716 [8] = assay: as above; format: cell-based, Escherichia coli; settings: for MIC: Escherichia coli, 716; for Interpretation: Table S1, E. coli 716
K. pneumoniae 1711 [9] = settings: carbapenemase KPC (class A), rectal swab; microdilution, 37 °C, 20 h; N/D = no antibacterial activity detected
Protocol: (§1) Each strain was grown in Mueller Hinton Broth (MH Broth), and 5 × 10^5 CFU/mL was used to evaluate antibacterial activity. Clinical carbapenem-resistant K. pneumoniae and E. coli isolates were collected at the AOU of Virology and Microbiology of the University of Campania “Luigi Vanvitelli”.
(§2) The antimicrobial activity of Hylin-a1, AR-23, and RV-23 was investigated using a microdilution assay as reported by the National Committee on Clinical Laboratory Standards (NCCLS) guidelines against a broad spectrum of Gram-negative bacteria. […] In 96-well, the standardized bacterial inoculum (5 × 10^5 colony forming units, CFU/mL) was inoculated together with AMPs and incubated at 37 °C for 20 h. After the time of incubation, optical density (OD) was measured at TECAN, and data were expressed as a percentage of inhibition. In addition to assessing the MIC values, the bactericidal effect was also studied as reported elsewhere.

K. pneumoniae 1745 [10] = settings: carbapenemase KPC (class A), ulcer; microdilution, 37 °C, 20 h; N/D = no antibacterial activity detected
Protocol: as §1, §2

E. coli 1376 [11] = settings: carbapenemase NDM (class B), rectal swab, N/D = no antibacterial activity detected
Protocol: as §1, §2

K. pneumoniae 1746 [12] = settings: carbapenemase VIM (class B), rectal swab; microdilution, 37 °C, 20 h; N/D = no antibacterial activity detected
Protocol: as §1, §2

E. coli 3140 [13] = settings: carbapenemase OXA-48 (class D), urine; microdilution, 37 °C, 20 h; N/D = no antibacterial activity detected
Protocol: as §1, §2

E. coli 1441 [14] = settings: carbapenemase KPC (class A), rectal swab; microdilution, 37 °C, 20 h; N/D = no antibacterial activity detected
Protocol: as §1, §2

E. coli 2267 [15] = settings: carbapenemase NDM (class B), rectal swab; microdilution, 37 °C, 20 h; N/D = no antibacterial activity detected
Protocol: as §1, §2

E. coli 716 [16] = settings: carbapenemases IMP1, VIM, NDM (class B), urine, N/D = no antibacterial activity detected
Protocol: as §1, §2

E. coli ATCC 25992 = settings: microdilution (NCCLS), MH broth, 5 × 10^5 CFU/mL, 37 °C, 20 h, absorbance; 50 to 1.56 μM
Protocol: (§3) The three peptides were tested for their antibacterial activity. […] As described in the Materials and Methods section, the antibacterial effect of peptides was investigated using a microdilution assay. Each concentration of AMPs was inoculated with bacteria in 96-well plates and incubated at 37 °C for 20 h. After that, MIC values were determined by analyzing absorbance and expressed as a percentage of inhibition. MBC was assessed by observing the colonies’ growth on agar plates, as described elsewhere.
as §1, §2

K. pneumoniae ATCC 10031 = system: K. pneumoniae ATCC 10031
Protocol: as §3, §1, §2

HaCaT cells = assay: MTT cytotoxicity assay on HaCaT keratinocytes; format: cell-based, human
Protocol: To evaluate their safety profile, cytotoxicity assays were performed on HaCaT keratinocytes. Cells were exposed for 20 h to peptides at doses ranging from 0.39 to 100 μM.
Figure 1 Dose–response curves for the AMPs against HaCaT cell line and CC50 (reported in μM), HillSlope, and R^2 values were obtained by the fitting of the curves. The viability effect of Hylin-a1, AR-23, and RV-23 was analyzed on HaCaT cells. The cell monolayer was treated with serial dilutions of peptides for 20 h. Untreated cells were used as a positive control, while dimethyl sulfoxide (DMSO) was used as a negative control. HillSlope: The measure of the steepness of the dose–response curve. […] R^2 (coefficient of determination) indicates how well the model fits the data. Ranges from 0 to 1, with 1 representing a perfect fit.
The cytotoxic effect of peptides was examined using 3-(4,5 dimethylthiazol-2-yl)-2,5-diphenyltetrazolium bromide (MTT), as previously described. Cell viability, expressed as a percentage, was calculated in relation to the viability of untreated cells (+). DMSO was used as negative control (−). The human keratinocyte cell line HaCaT (Cell Lines Service, CLS-, Eppelheim, Germany) was used as a cellular model to evaluate the peptides’ cytotoxicity. HaCaT cells were grown in Dulbecco’s Modified Eagle Medium (DMEM) with 4.5 g/L of glucose (Microtech, Naples, Italy) supplemented with an antibiotic solution 100× (Himedia, Naples, Italy) and 10% Fetal Bovine Serum (FBS, Microtech).

Serum stability assay = format: in vitro ADME, bovine; settings: 10% FBS
Protocol: The susceptibility of Hylin-a1, AR-23, and RV-23 to proteolytic degradation in serum was evaluated, following the protocol reported in Section 4.3.
Figure 6 AMP stability in serum. Stability profiles of Hylin-a1 (red line), AR-23 (gray line), and RV-23 (black line) are reported. All stability tests were performed at least in triplicate. LC-MS analyses were performed using an Agilent 1260 Infinity II LC/MSD system (Milan, Italy). The percentages of intact peptides after different time points of incubation in serum were determined by integrating RP-HPLC peaks from the chromatograms recorded at a wavelength of 210 nm. The test was performed in triplicate, and the data are presented as mean values, with error bars representing standard deviations.
Peptides were mixed with 10% FBS at a final concentration of 0.2 mg/mL and incubated in a water bath at 37 °C. […] Then, the mixture was diluted with 0.1% TFA in H2O (1:1). Samples were characterized using LC-MS on a C18 Aeris Peptide column (100 × 2.1 mm), applying a linear gradient from 5 to 80% solvent B (0.1% TFA in CH3CN) over solvent A (0.1% TFA in water) in 15 min at a flow rate of 0.2 mL/min. All stability tests were performed at least in triplicate. LC-MS analyses were performed using an Agilent 1260 Infinity II LC/MSD system (Milan, Italy).

K. pneumoniae 311 = assay: Antibiotic resistance profile of clinical isolate (Table S1); format: cell-based, Klebsiella pneumoniae; for Interpretation: key: S: Sensible; I: Intermediate; R: Resistant
Throughout, for Interpretation: key: S: Sensible; I: Intermediate; R: Resistant.

With `C[C@@H](O)[C@H]1C(=O)N2C(C(=O)O)=C(S[C@@H]3CN[C@H](C(=O)N(C)C)C3)[C@H](C)[C@H]12` [Meropenem] the MIC (K. pneumoniae 1711 [1]) was > 16 µg/mL, the Interpretation (K. pneumoniae 1711 [1]) was “R” and the MIC (K. pneumoniae 1745 [2]) was > 16 µg/mL. For the same compound, the Interpretation (K. pneumoniae 1745 [2]) was “R”, the MIC (K. pneumoniae 1746 [3]) was 1 µg/mL (≈ 2.61 µM) and the Interpretation (K. pneumoniae 1746 [3]) was “S”. The MIC (K. pneumoniae; Klebsiella pneumoniae, read-out: MIC of meropenem) was 5 µg/mL, the “MIC of antibiotic (meropenem) in combination” value (“MIC of antibiotic (meropenem)” below) (K. pneumoniae; combined with AR23 at 3.125 μM) was 0.625 µg/mL and the “MIC of antibiotic (meropenem)” value (K. pneumoniae; combined with RV-23 at 3.125 μM) was 0.625 µg/mL. The MIC (E. coli; Escherichia coli, read-out: MIC of meropenem) was 5 µg/mL, the “MIC of antibiotic (meropenem)” value (E. coli; combined with AR23 at 6.25 μM) was 1.25 µg/mL and the “MIC of antibiotic (meropenem)” value (E. coli; combined with Hylin-a1 at 3.125 μM) was 2.5 µg/mL. The “MIC of antibiotic (meropenem)” value (E. coli; combined with RV-23 at 6.25 μM) was 2.5 µg/mL, the MIC (E. coli 1376 [4]) was > 16 µg/mL and the Interpretation (E. coli 1376 [4]) was “R”. The MIC (E. coli 3140 [5]) was 0.5 µg/mL (≈ 1.3 µM), the Interpretation (E. coli 3140 [5]) was “S” and the MIC (E. coli 1441 [6]) was 1 µg/mL (≈ 2.61 µM). For the same compound, the Interpretation (E. coli 1441 [6]) was “S”, the MIC (E. coli 2267 [7]) was > 16 µg/mL and the Interpretation (E. coli 2267 [7]) was “R”. For the same compound, the MIC (E. coli 716 [8]) was > 16 µg/mL and the Interpretation (E. coli 716 [8]) was “R”.
In the case of AIGSILGALAKGLPTLISWIKNR-NH2 [AR-23], the MIC (K. pneumoniae 1711 [9]) is reported as 50 µM, the MIC (K. pneumoniae 1745 [10]) is reported as 50 µM and the MBC (E. coli 1376 [11]) is reported as 50 µM. It also gave an MIC (E. coli 1376 [11]; microdilution, 37 °C, 20 h) of 25 µM, an MIC (K. pneumoniae 1746 [12]) of 25 µM and an MIC (E. coli 3140 [13]) of 50 µM. The MIC (E. coli 1441 [14]) was 25 µM, the MIC (E. coli 2267 [15]) was 25 µM and the MBC (E. coli 716 [16]) was 50 µM. It also gave an MIC (E. coli 716 [16]; microdilution, 37 °C, 20 h) of 25 µM, an MIC (E. coli ATCC 25992) of 25 µM and an MBC (K. pneumoniae ATCC 10031; colonies' growth on agar plates after microdilution, N/D = not detected antibacterial activity) of 25 µM. For the same compound, the MIC (K. pneumoniae ATCC 10031; microdilution (NCCLS), MH broth, 5 × 10^5 CFU/mL, 37 °C, 20 h, absorbance, 50 to 1.56 μM) was 6.25 µM, the “50% cytotoxic concentration (CC50)” value (HaCaT cells; HaCaT keratinocytes, 20 h exposure, 0.39 to 100 μM) was 50 µM and the “CC50 obtained by the fitting of the curves” value (HaCaT cells; HaCaT, 20 h, Figure 1) was 52.25 µM. For the same compound, the “percentage of intact fragments, almost constant up to 24 h” value (Serum stability assay; 0.2 mg/mL, 37 °C, RP-HPLC peaks at 210 nm, mean of triplicate, after the first 2 h up to 24 h) was “around 30%” and the half-life (Serum stability assay; serum, peptide 0.2 mg/mL, 37 °C water bath, ethanol precipitation, LC-MS, RP-HPLC peak integration at 210 nm, at least triplicate) was < 2 h.
In the case of `C[C@@H](O)[C@H]1C(=O)N2C(C(=O)O)=C(S[C@@H]3CN[C@H](C(=O)Nc4cccc(C(=O)O)c4)C3)[C@H](C)[C@H]12` [Ertapenem], the MIC (K. pneumoniae 1711 [1]) is reported as > 1 µg/mL, the Interpretation (K. pneumoniae 1711 [1]) is reported as “R” and the MIC (K. pneumoniae 1745 [2]) is reported as > 1 µg/mL. The Interpretation (K. pneumoniae 1745 [2]) was “R”, the MIC (K. pneumoniae 1746 [3]) was > 1 µg/mL and the Interpretation (K. pneumoniae 1746 [3]) was “R”. The MIC (K. pneumoniae 311; Klebsiella pneumoniae, 311) was > 1 µg/mL, the Interpretation (K. pneumoniae 311; Table S1, K. pneumoniae 311) was “R” and the MIC (E. coli 1376 [4]) was > 1 µg/mL. The Interpretation (E. coli 1376 [4]) was “R”, the MIC (E. coli 3140 [5]) was > 1 µg/mL and the Interpretation (E. coli 3140 [5]) was “R”. For the same compound, the MIC (E. coli 1441 [6]) was > 1 µg/mL, the Interpretation (E. coli 1441 [6]) was “R” and the MIC (E. coli 2267 [7]) was > 1 µg/mL. For the same compound, the Interpretation (E. coli 2267 [7]) was “R”, the MIC (E. coli 716 [8]) was > 1 µg/mL and the Interpretation (E. coli 716 [8]) was “R”.
